Test results: patent publication EP3409761B1, “CULTURE MEDIUM COMPOSITION, AND METHOD FOR CULTURING CELL OR TISSUE USING SAID COMPOSITION” (Nissan Chemical Corporation, priority 2012, dated 2014)

Experiments:
[1] = system: human squamous carcinoma cell line A431; assay: Effect of Gefitinib, Elrotinib on proliferation of A431 cells stimulated with human HB-EGF; assay type: cell-based; conditions: DAG 0.015%
Protocol: Each plate was cultured by being stood still in a CO2 incubator (37°C, 5% CO2). […] To the culture medium on days 4, 6 and 8 was added an ATP reagent (150 µL) (CellTiter-Glo (registered trade mark) Luminescent Cell Viability Assay, manufactured by Promega) to give a suspension, which was stood for about 10 min at room temperature, and the luminescence intensity (RLU value) was measured by FlexStation3 (manufactured by Molecular Devices), and the number of viable cells was measured by subtracting the luminescence value of the medium alone.

HepG2 cells [2] = assay: Toxicity test of compound to hepatocytes: number of viable cells (Cell Titer-Glo); assay type: cell-based, human; conditions: DAG 0.015%, 1 day, no addition = 1
Protocol: (§1) This aqueous solution was sterilized at 121°C for 20 min in an autoclave. On the other hand, HepG2 cells was mixed with DMEM medium (manufactured by WAKO) at 100000 cells/mL, and the cell suspension was dispensed to the wells of a 96-well flat bottom ultra low adhesion surface microplate (manufactured by Corning Incorporated, #3474) at 100 µL/well. […] Successively, this plate was cultured by being stood still in a CO2 incubator (37°C, 5% CO2) for 1 day.
The culture medium (50 µL) after culturing for 1 day was dispensed to a 96-well titer plate (manufactured by Corning Incorporated), to this culture medium was added a Cell Titer-Glo (registered trade mark) reagent (manufactured by Promega, 50 µL), and the mixture was incubated at room temperature for 10 min. The luminescence intensity was measured by a multiplate reader (manufactured by Molecular Devices, FlexStation3) to measure the number of viable cells.

HepG2 cells [3] = assay: Toxicity test of compound to hepatocytes: LDH activity measurement; assay type: cell-based, human; conditions: DAG 0.015%, 1 day
Protocol: as §1
To the culture medium (100 µL) after culturing for 1 day was added DMEM medium (manufactured by WAKO, 100 µL), and the plate was centrifuged by 4316.4 m·s^-2 (440G) for 15 min. The supernatant (100 µL) was dispensed to a 96-well titer plate (manufactured by Corning Incorporated), a reaction mixture (100 µL) in a cytotoxicity detection kit (manufactured by Roche Applied Science) was added, and the mixture was stood under shading at room temperature for 30 min. Successively, according to the protocol of the above-mentioned kit, the absorbance at 490 nm (reference; 600 nm) was measured by an absorbance spectrometer (manufactured by Molecular Devices, SPECTRA MAX 190), whereby the rate of the disordered cell, that is, cell disorder rate (%), was measured.

C#Cc1cccc(Nc2ncnc3cc(OCCOC)c(OCCOC)cc23)c1 [Elrotinib]
% Control value of the RLU value (ATP measurement) ([1]; drug 0.1 µM, day 4): 88 % Control
% Control value of the RLU value (ATP measurement) ([1]; drug 0.1 µM, day 8): 56 % Control
% Control value of the RLU value (ATP measurement) ([1]; drug 0.3 µM, day 4): 89 % Control
% Control value of the RLU value (ATP measurement) ([1]; drug 0.3 µM, day 8): 27 % Control
% Control value of the RLU value (ATP measurement) ([1]; drug 1 µM, day 4): 21 % Control
% Control value of the RLU value (ATP measurement) ([1]; drug 1 µM, day 8): 4 % Control
% Control value of the RLU value (ATP measurement) ([1]; drug 3 µM, day 4): 4 % Control
% Control value of the RLU value (ATP measurement) ([1]; drug 3 µM, day 8): 0 % Control

Cc1c(C)c2c(c(C)c1O)CCC(C)(COc1ccc(CC3SC(=O)NC3=O)cc1)O2 (stereo not shown) [Troglitazone]
relative cell number (HepG2 cells [2]; Troglitazone 20 µM): 0.68
relative cell number (HepG2 cells [2]; Troglitazone 40 µM): 0.50
relative cell number (HepG2 cells [2]; Troglitazone 60 µM): 0.48
relative cell number (HepG2 cells [2]; Troglitazone 100 µM): 0.39
cell disorder rate (HepG2 cells [3]; Troglitazone 20 µM): 2.68%
cell disorder rate (HepG2 cells [3]; Troglitazone 40 µM): 14.7%
cell disorder rate (HepG2 cells [3]; Troglitazone 60 µM): 22.5%
cell disorder rate (HepG2 cells [3]; Troglitazone 100 µM): 60.7%
